According to the supplement of paper PMC11061612:

Tests used:
[1] = compound: Nc1ccn([C@@H]2O[C@H](CO)[C@@H](O)C2(F)F)c(=O)n1 [Gemcitabine]; conditions: max 0.3 µM
How it was run: (§1)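 Cancer cell lines were seeded in 1536-well plates in 7.5 μl DMEM/F12 or RPMI with 10% FBS, held 24 hours at 37°C and 5% CO2, then dosed for 72 hours (final DMSO typically 0.2%). Viability was read by CellTiter-Glo 2.0 luminescence and scaled between blank-well and DMSO-well means. The single-agent IC50 comes from dose responses fitted to a two-parameter logistic curve with a non-linear mixed effects model.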

[2] = compound: CC(=O)O[C@H]1C(=O)[C@@]2(C)[C@H]([C@H](OC(=O)c3ccccc3)[C@]3(O)C[C@H](OC(=O)[C@H](O)[C@@H](NC(=O)c4ccccc4)c4ccccc4)C(C)=C1C3(C)C)[C@]1(OC(C)=O)CO[C@@H]1C[C@@H]2O [Paclitaxel]; conditions: max 3 µM
How it was run: as §1

[3] = compound: Cc1nc(-c2cn3c(n2)-c2ccc(-c4cnn(C(C)(C)C(N)=O)c4)cc2OCC3)n(C(C)C)n1 [Taselisib]; conditions: max 10 µM
How it was run: as §1

[4] = compound: O=C(Nc1ccc2[nH]nc(-c3ccncc3)c2c1)[C@@H]1CCN(CC(=O)N2CCN(c3ccc(-c4ncccn4)cc3)CC2)C1; conditions: max 5 µM
How it was run: as §1

[5] = compound: COc1cc([C@@H]2c3cc4c(cc3[C@@H](O[C@@H]3O[C@@H]5CO[C@@H](C)O[C@H]5[C@H](O)[C@H]3O)[C@H]3COC(=O)[C@H]23)OCO4)cc(OC)c1O [Etoposide]; conditions: max 10 µM
How it was run: as §1

[6] = compound: C=CCn1c(=O)c2cnc(Nc3ccc(N4CCN(C)CC4)cc3)nc2n1-c1cccc(C(C)(C)O)n1 [AZD1775]; conditions: max 3 µM
How it was run: as §1

[7] = compound: CC(C)n1c(=O)n(C)c2cnc3cc(F)c(-c4ccc(OCCCN5CCCCC5)nc4)cc3c21 [AZD1390]; conditions: max 0.3 µM
How it was run: as §1

[8] = compound: COc1cc2ncnc(Nc3ccc(F)c(Cl)c3)c2cc1OCCCN1CCOCC1 [Gefitinib]; conditions: max 10 µM
How it was run: as §1

[9] = compound: O=c1[nH]cc(F)c(=O)[nH]1 [5-Fluorouracil]; conditions: max 20 µM
How it was run: as §1

[10] = compound: N#Cc1cnc(Nc2cc(NC[C@H]3CNCCO3)c(C(F)(F)F)cn2)cn1 [SRA737]; conditions: max 10 µM
How it was run: as §1

[11] = compound: CC(=O)Nc1cccc(-n2c(=O)n(C3CC3)c(=O)c3c(Nc4ccc(I)cc4F)n(C)c(=O)c(C)c32)c1 [Trametinib]; conditions: max 1 µM
How it was run: as §1

[12] = compound: CCc1c2c(nc3ccc(O)cc13)-c1cc3c(c(=O)n1C2)COC(=O)[C@]3(O)CC [SN-38]; conditions: max 0.3 µM
How it was run: as §1

[13] = compound: C1CN(CCC1(C(=O)N[C@@H](CCO)C2=CC=C(C=C2)Cl)N)C3=NC=NC4=C3C=CN4 [AZD5363]; conditions: max 10 µM
How it was run: as §1

[14] = compound: C1CC(C1)(C(=O)[O-])C(=O)[O-].N.N.[Pt+2] [Carboplatin]; conditions: max 10 µM
How it was run: as §1

[15] = compound: COc1cc(Nc2ncc3c(n2)-c2ccc(Cl)cc2C(c2c(F)cccc2OC)=NC3)ccc1C(=O)O [Alisertib]; conditions: max 10 µM
How it was run: as §1

[16] = compound: C[C@@H](c1ccc2nccn2c1)n1nnc2ncc(-c3cnn(C)c3)nc21 [Savolitinib]; conditions: max 1 µM
How it was run: as §1

[17] = compound: CC(=O)c1c(C)c2cnc(Nc3ccc(N4CCNCC4)cn3)nc2n(C2CCCC2)c1=O [Palbociclib]; conditions: max 10 µM
How it was run: as §1

[18] = compound: NC1(c2ccc(-c3nc4ccn5c(=O)[nH]nc5c4cc3-c3ccccc3)cc2)CCC1 [MK-2206]; conditions: max 10 µM
How it was run: as §1

[19] = compound: O=C(c1cc(Cc2n[nH]c(=O)c3ccccc23)ccc1F)N1CCN(C(=O)C2CC2)CC1 [Olaparib]; conditions: max 10 µM
How it was run: as §1

[20] = compound: C[C@@H](Oc1cc(-c2cnn(C3CCNCC3)c2)cnc1N)c1c(Cl)ccc(F)c1Cl [Crizotinib]; conditions: max 10 µM
How it was run: as §1

[21] = compound: CS(=O)(=O)CCNCc1ccc(-c2ccc3ncnc(Nc4ccc(OCc5cccc(F)c5)c(Cl)c4)c3c2)o1 [Lapatinib]; conditions: max 10 µM
How it was run: as §1

[22] = compound: Cc1cc2ncnn2cc1Nc1ncc2c(n1)n(C1CCOCC1)c(=O)n2C [AZD7648]; conditions: max 10 µM
How it was run: as §1

[23] = compound: C[C@@H](Nc1cc(F)cc(F)c1)c1cc(C(=O)N(C)C)cc2c(=O)cc(N3CCOCC3)oc12 [AZD8186]; conditions: max 10 µM
How it was run: as §1

[24] = compound: CCN(CCO)CCCOc1ccc2c(Nc3cc(CC(=O)Nc4cccc(F)c4)[nH]n3)ncnc2c1 [AZD2811]; conditions: max 1 µM
How it was run: as §1

[25] = compound: CC1(C)CCC(CN2CCN(c3ccc(C(=O)NS(=O)(=O)c4ccc(NCC5CCOCC5)c([N+](=O)[O-])c4)c(Oc4cnc5[nH]ccc5c4)c3)CC2)=C(c2ccc(Cl)cc2)C1 [Venetoclax]; conditions: max 1 µM
How it was run: as §1

[26] = compound: CN(C)CCCOc1ccc(-c2ccc3ncc4c(c3c2)n(C2CCOCC2)c(=O)n4C)cn1 [AZD0156]; conditions: max 3 µM
How it was run: as §1

[27] = compound: C[C@@H]1COCCN1C2=NC(=NC(=C2)C3(CC3)[S@](=N)(=O)C)C4=C5C=CNC5=NC=C4 [AZD6738]; conditions: max 10 µM
How it was run: as §1

[28] = compound: COc1nnc2ccc(N3CCC(c4ccc(OCCN5CCN(C)C(=O)[C@H]5C)cc4)CC3)nn12 [AZD5153]; conditions: max 1 µM
How it was run: as §1

[29] = compound: COc1cccc(OCCCN)c1-c1cc(Nc2cnc(C#N)cn2)n[nH]1 [Prexasertib]; conditions: max 1 µM
How it was run: as §1

[30] = compound: Cn1cnc2c(F)c(Nc3ccc(Br)cc3Cl)c(C(=O)NOCCO)cc21 [Selumetinib]; conditions: max 10 µM
How it was run: as §1

[31] = compound: Cc1c2c(nn1C)CSCc1cc(n(C)n1)CSc1cc(c3ccccc3c1)OCCCc1c(C(=O)O)n(C)c3c-2c(Cl)ccc13 [AZD5991]; conditions: max 1 µM
How it was run: as §1

[32] = compound: CC1=C(C(=CC=C1)Cl)NC(=O)C2=CN=C(S2)NC3=CC(=NC(=N3)C)N4CCN(CC4)CCO [Dasatinib]; conditions: max 2 µM
How it was run: as §1

[33] = compound: CC1=CN2[C@@H](C1)C=NC3=CC(=C(C=C3C2=O)OC)OCCCCCOC4=C(C=C5C(=C4)N=C[C@@H]6CC(=CN6C5=O)C)OC [SG3199]; conditions: max 0.001 µM
How it was run: as §1

[34] = compound: COc1cccc2c1C(=O)c1c(O)c3c(c(O)c1C2=O)C[C@@](O)(C(=O)CO)C[C@@H]3O[C@H]1C[C@H](N)[C@H](O)[C@H](C)O1 [Doxorubicin]; conditions: max 1 µM
How it was run: as §1

[35] = compound: CN(CC[C@H](CSC1=CC=CC=C1)NC2=C(C=C(C=C2)S(=O)(=O)NC(=O)C3=CC=C(C=C3)N4CCC(CC4)[C@H](C5=CC=CC=C5C6=CC=C(C=C6)Cl)O)S(=O)(=O)C(F)(F)F)CCO [AZD4320]; conditions: max 1 µM
How it was run: as §1

| Cell Line | IC50, cell viability 72 h [1] [nM] | IC50, cell viability 72 h [2] [nM] | IC50, cell viability 72 h [3] [nM] | IC50, cell viability 72 h [4] [nM] | IC50, cell viability 72 h [5] [nM] | IC50, cell viability 72 h [6] [nM] | IC50, cell viability 72 h [7] [nM] | IC50, cell viability 72 h [8] [µM] | IC50, cell viability 72 h [9] [µM] | IC50, cell viability 72 h [10] [µM] | IC50, cell viability 72 h [11] [nM] | IC50, cell viability 72 h [12] [nM] | IC50, cell viability 72 h [13] [µM] | IC50, cell viability 72 h [14] [µM] | IC50, cell viability 72 h [15] [µM] | IC50, cell viability 72 h [16] [nM] | IC50, cell viability 72 h [17] [µM] | IC50, cell viability 72 h [18] [µM] | IC50, cell viability 72 h [19] [µM] | IC50, cell viability 72 h [20] [µM] | IC50, cell viability 72 h [21] [µM] | IC50, cell viability 72 h [22] [µM] | IC50, cell viability 72 h [23] [µM] | IC50, cell viability 72 h [24] [nM] | IC50, cell viability 72 h [25] [nM] | IC50, cell viability 72 h [26] [nM] | IC50, cell viability 72 h [27] [µM] | IC50, cell viability 72 h [28] [nM] | IC50, cell viability 72 h [29] [nM] | IC50, cell viability 72 h [30] [µM] | IC50, cell viability 72 h [31] [nM] | IC50, cell viability 72 h [32] [nM] | IC50, cell viability 72 h [33] [nM] | IC50, cell viability 72 h [34] [nM] | IC50, cell viability 72 h [35] [nM] |
| --- | --- | --- | --- | --- | --- | --- | --- | --- | --- | --- | --- | --- | --- | --- | --- | --- | --- | --- | --- | --- | --- | --- | --- | --- | --- | --- | --- | --- | --- | --- | --- | --- | --- | --- | --- |
| NCI-H520 (Squamous Cell Lung Carcinoma) | 93.6 | 43.1 | 2340 | > 5000 | > 10000 | 1030 | > 300 | > 10 | > 20 | > 10 | > 1000 | 46 | 4.01 | > 10 | 8.62 | > 1000 | 4.77 | 1.87 | > 10 | > 10 | > 10 | > 10 | 4.99 | > 1000 | > 1000 | > 3000 | 7.34 | 923 | 44.3 | > 10 | > 1000 | > 2000 | > 1 | > 1000 | > 1000 |
| NCI-H526 (Small Cell Lung Carcinoma) | 251 | 9.08 | > 10000 | > 5000 | 713 | 642 | > 300 | > 10 | 12.8 | > 10 | > 1000 | 2.57 | > 10 | > 10 | 9.42 | > 1000 | > 10 | > 10 | > 10 | 7.94 | > 10 | > 10 | > 10 | > 1000 | 246 | > 3000 | 10 | 80.1 | 83.8 | > 10 | > 1000 | > 2000 | > 1 | 107 | 43.4 |
| NCI-H929 (Plasma Cell Myeloma) | 12.1 | 4.54 | 23.6 | 981 | 1250 | 1060 | > 300 | > 10 | 7.15 | > 10 | 32.9 | 13.1 | 0.106 | > 10 | > 10 | > 1000 | > 10 | 0.0699 | > 10 | 0.982 | > 10 | 2.27 | 0.728 | > 1000 | > 1000 | 1150 | 5.41 | 13.4 | 179 | 3.13 | 17.5 | > 2000 | > 1 | 548 | > 1000 |
| NCI-H2731 (Mesothelioma) | > 300 | 1780 | > 10000 | > 5000 | > 10000 | > 3000 | > 300 | > 10 | > 20 | > 10 | > 1000 | > 300 | > 10 | > 10 | > 10 | > 1000 | > 10 | > 10 | > 10 | > 10 | > 10 | > 10 | > 10 | > 1000 | > 1000 | > 3000 | > 10 | > 1000 | > 1000 | > 10 | > 1000 | > 2000 | > 1 | > 1000 | > 1000 |
| NCI-H3122 (Lung Adenocarcinoma) | 32 | 9.01 | 1080 | 958 | > 10000 | > 3000 | > 300 | > 10 | > 20 | > 10 | 58.9 | 17.7 | > 10 | > 10 | > 10 | > 1000 | 2.58 | 7.95 | > 10 | 0.323 | > 10 | > 10 | > 10 | > 1000 | > 1000 | > 3000 | 7.46 | 612 | 315 | 7.82 | > 1000 | > 2000 | > 1 | 237 | > 1000 |
